Measurements from patent publication US7173004B2, “Macrocyclic isoquinoline peptide inhibitors of hepatitis C virus” (Bristol-Myers Squibb Company, priority 2003, dated 2007).
“Also recorded” adds a separate entry of the source.

Experiments:
[1] = target: T1, porcine pancreatic elastase (PPE) (Sus scrofa, UniProt P00772); assay: Specificity assay, porcine pancreatic elastase; format: biochemical; conditions: read-out: PPE activity in the specificity assays (IC50)
T1 construct: purchased Sigma
Description: The specificities of compounds of the present invention were determined against a variety of serine proteases: human neutrophil elastase (HNE), porcine pancreatic elastase (PPE) and human pancreatic chymotrypsin and one cysteine protease: human liver cathepsin B. In all cases a 96-well plate format protocol using calorimetric p-nitroaniline (pNA) substrate specific for each enzyme was used as described previously (PCT Patent Application No. WO 00/09543) with some modifications to the serine protease assays. All enzymes were purchased from Sigma while the substrates were from Bachem.
Each assay included a 2 hr enzyme-inhibitor pre-incubation at room temperature followed by addition of substrate and hydrolysis to ˜30% conversion as measured on a Spectramax Pro microplate reader. Compound concentrations varied from 100 to 0.4 micromolar (“μM”) depending on their potency. […]
The percentage of inhibition was calculated using the formula: [1−((UVinh−UVblank)/(UVctl−UVblank))]×100 […]

HCV replicon [2] = assay: Two-drug combination studies in HCV replicon system, combination index (Chou); format: cell-based; conditions: for EC50: monotherapy, NS3 protease inhibitor = compound 28, read-out: NS3 protease inhibitor EC50
Source text: Since clinical drug resistance often develops in viral infections following single-agent therapies, there is a need to assess the additive, antagonistic, or synergistic properties of combination therapies. We used the HCV replicon system, as described above, to assess the potential use of our NS3 protease macrocyclic inhibitor in combination therapies with Intron A and inhibitors targeting other HCV proteins. Three HCV antivirals, Intron A (recombinant Interferon alfa-2b) an HCV NS5A inhibitor having the following structure:
In addition, compound 28 was also tested in 3-drug combinations with the NS5A and NS5B inhibitors.
For the experiments shown in Tables 8 and 9, inhibitors were tested at eleven concentrations each. 200× stock solutions of each inhibitor concentration were prepared by 2- or 3-fold dilution in DMSO prior to addition to cells/media. The drugs were tested as monotherapies and in combination with the NS3 protease inhibitor at various concentration ratios. Cells were exposed to compounds for 4 days and the amount of HCV inhibition was then determined using the FRET assay. The potential cytotoxicities of these combined agents were also analyzed in parallel by Alamar Blue staining. […] The degree of antagonism, additivity, or synergy was determined over a range of drug concentrations, and combination response curves were fit to assess the antiviral effects of the drug treatment combinations. The concentration ratios were analyzed using the method of Chou (Chou, Ting-Chao, and Rideout (Editors), (1991) Synergism and Antagonism in Chemotherapy, P. 61–101, Academic Press, New York). Tables 8 and 9 report the estimated EC50 values for the compounds tested, as well as the combination indices (CI). All estimates were computed using SAS Proc NLIN, and a two-parameter logistic. All combination indices were tested for departure from additivity using isobologram methods. Asymptotic confidence intervals were also calculated for each of the combination indices. These intervals are used to test for departure from additivity by comparing the bounds to one—a lower bound of the interval greater than 1 indicates antagonism, an upper bound of less than 1 indicates synergism, and a value of 1 contained in the interval indicates additivity.

HCV replicon [3] = assay: Two-drug combination matrix studies in HCV replicon system, Universal Response Surface Approach (URSA); format: cell-based; conditions: for EC50: Hepatitis C virus
Description: In addition to the combination index approach, above, the Universal Response Surface Approach (URSA) was also used to assess the antiviral effects of combinations of NS5A or NS5B inhibitors with the NS3 protease inhibitor. The experiments were conducted in a matrixed format with 8 concentrations of NS3 protease inhibitor crossed against 10 concentrations of NS5A or NS5B inhibitor on each of three plates. 200× stock solutions of each inhibitor concentration were prepared by 3-fold dilution in DMSO. Effects on replication were assessed in the HCV replicon system as described above. The data was analyzed using the URSA as described in Greco, Park and Rustum (Greco, Park, Sook, and Rustum (1990) Application of a New Approach for the Quantitation of Drug Synergism to the Combination of cis-Diamminedichloroplatinum and 1-β-D-Arabinofuranosylcytosine, Cancer Research, 50, 5318–5327). The interaction of the two drugs was assessed by using non-linear regression with a bisection algorithm. Seven parameters were estimated. These include the minimal response or response in the absence of drug, the maximal response or response in the presence of infinite drug, EC50's for the two drugs, slope parameters for the two drugs, and the drug interaction parameter α which provides the assessment of synergism, antagonism or additivity. Additivity is implied when α is equal to zero, synergy if the interaction parameter is larger than zero, and antagonism when the interaction parameter is less than zero. The confidence interval for the interaction parameter is also presented. This interval is used to test for departure from additivity by comparing the bounds to zero—a lower bound of the interval greater than zero indicates synergy, an upper bound of less than zero indicates antagonism, and a value of zero contained in the interval indicates additivity.

[4] = 75, 90 and 95% effective doses, two experiments
[5] = compound 28 combined with NS5A inhibitor, matrix study (Table 10)
[6] = compound 28 combined with NS5B inhibitor, Expt 1
[7] = compound 28 combined with NS5B inhibitor, Expt 2

T1 sequence (P00772 27-266): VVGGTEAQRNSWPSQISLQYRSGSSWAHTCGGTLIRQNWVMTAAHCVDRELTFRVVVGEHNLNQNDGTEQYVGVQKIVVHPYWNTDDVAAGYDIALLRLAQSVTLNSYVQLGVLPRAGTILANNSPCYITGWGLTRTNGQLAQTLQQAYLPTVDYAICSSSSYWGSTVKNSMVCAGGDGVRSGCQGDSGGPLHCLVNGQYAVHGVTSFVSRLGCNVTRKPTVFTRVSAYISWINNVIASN

Structure (SMILES): CC(C)(C)OC(=O)N[C@H]1CCCCC/C=C\[C@@H]2C[C@@]2(C(=O)NS(C)(=O)=O)NC(=O)[C@@H]2C[C@@H](Oc3nccc4ccccc34)CN2C1=O [Compound 2, [18-(Isoquinolin-1-yloxy)-4-methanesulfonylaminocarbonyl-2,15-dioxo-3,16-diaza-tricyclo[14.3.0.0^4,6]nonadec-7-en-14-yl]-carbamic acid tert-butyl ester]
- IC50 [1]: > 100000 nM

Structure (SMILES): COc1ccc2c(OC3CC4C(=O)NC5(C(=O)NS(=O)(=O)C6CC6)CC5C=CCOCCCC(NC(=O)OC(C)(C)C)C(=O)N4C3)nccc2c1 (centres unmarked) [Compound 28, [4-Cyclopropanesulfonylaminocarbonyl-18-(6-methoxy-isoquinolin-1-yloxy)-2,15-dioxo-10-oxa-3,16-diaza-tricyclo[14.3.0.0^4,6]nonadec-7-en-14-yl]-carbamic acid tert-butyl ester]
- combination effect with Intron A (Interferon alfa-2b) (HCV replicon [2]; [4]): either synergistic or additivity effects; also recorded: no drug antagonism
- combination effect with the HCV NS5A inhibitor (HCV replicon [2]; [4]): Synergy or additivity; also recorded: no drug antagonism
- EC50 (HCV replicon [2]; Hepatitis C virus, Table 9 (combinations with an NS5A inhibitor)): 9 nM
- EC50 (HCV replicon [2]; Table 9 (combinations with an NS5A inhibitor)): 11 nM
- EC50 (HCV replicon [2]; Table 8 (combinations with Interferon alfa-2b)): 10 nM
- EC50 (HCV replicon [3]; matrix study with NS5A inhibitor, URSA estimate (Table 10)): 9 nM
- EC50 (HCV replicon [3]; matrix study with NS5B inhibitor, Expt 1 (Table 11)): 15 nM
- EC50 (HCV replicon [3]; matrix study with NS5B inhibitor, Expt 2 (Table 11)): 20 nM
- Interaction parameter alpha (HCV replicon [3]; [5]): 0.63
- Overall Result (HCV replicon [3]; [5]): Additivity
- Overall Result (HCV replicon [3]; compound 28 combined with NS5A inhibitor, matrix study (Table 10), listed as compound 28): additivity
- Interaction parameter alpha (HCV replicon [3]; [6]): 0.47
- Overall Result (HCV replicon [3]; [6]): Additivity
- Interaction parameter alpha (HCV replicon [3]; [7]): 0.31
- Overall Result (HCV replicon [3]; [7]): Additivity
- combination effect with the HCV NS5B inhibitor, matrix format (HCV replicon [3]; two experiments): overall additivity
